According to patent US20260125346A1, “Isoquinolinone Derivatives and 4H-Quinolizinone Derivatives and Pharmaceutical Compositions Thereof for the Treatment of Disease” (BeOne Medicines I GmbH, priority 2023, published 2026):

Experiments:
Type in all cases: cell-based
WT cell line SK-BR-3 [1] = assay: Phospho-AKT (Ser473) Inhibition Assay (HTRF), SK-BR-3; details: Homo sapiens; SK-BR-3, 1 hour treatment; read-out: p-AKT Inhibition assay (S473) IC50 SK-BR-3
Procedure, shortened: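 SK-BR-3 (PI3Kα WT) cells seeded overnight in MEM with insulin, then treated 1 h with 11-point 1:3 dilutions (10 μM to 0.1 nM, 0.1% DMSO). Lysates read for phospho-AKT Ser473 by HTRF after 4 h antibody incubation at room temperature. IC50 from 4-parameter fit, % inhibition normalized to DMSO (max) and 10 μM GDC0077 (min).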

[2] = tested on: PI3Kα H1047R mutated cell line T-47D cells; assay: Cell Proliferation Assay (CellTiter-Glo), T-47D; details: for IC50: Homo sapiens, T47D, 72 h, T-47D, 3 days treatment; for Selectivity: SK-BR-3/T-47D (cell proliferation): cell proliferation IC50 ratio
Procedure, shortened: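 T-47D cells seeded overnight at 3×10^3/well, then exposed 3 days to 9-point 1:3 dilutions, final […] to 1 nM in 0.1% DMSO. CellTiter-Glo luminescence; relative IC50 from percent inhibition versus medium-only and 0.1% DMSO controls, 4-parameter logistic fit.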

[3] = tested on: PI3Kα H1047R mutated cell line T-47D; assay: Phospho-AKT (Ser473) Inhibition Assay (HTRF), T-47D; details: for IC50: Homo sapiens, T47D, T-47D, 1 hour treatment, read-out: p-AKT Inhibition assay (S473) IC50 T-47D; for Selectivity: SK-BR-3/T-47D (p-AKT): p-AKT (S473) IC50 ratio
Procedure, shortened: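 Cells seeded overnight in insulin-supplemented MEM, then treated 1 h with 11-point 1:3 compound dilutions (10 μM to 0.1 nM final, 0.1% DMSO). Lysates assayed for phospho-AKT Ser473 by HTRF; IC50 from 4-parameter logistic fit, normalised to DMSO (max) and 10 μM GDC0077 (min).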

WT cell line SK-BR-3 [4] = assay: Cell Proliferation Assay (CellTiter-Glo), SK-BR-3; details: Homo sapiens, 72 h; SK-BR-3, 3 days treatment
Description: The SK-BR-3 (ATCC, HTB-30) cell line was obtained from the American Type Culture Collection. Cells were maintained in McCoy' 5A medium (Gibco, REF #16600108) supplemented with 10% Fetal Bovine Serum. Cultures were maintained in a humidified incubator at 37° C. under 5% CO2/95% air.
Cell Proliferation Assay. PI3Kα H1047R mutated cell line T-47D cells and WT cell line SK-BR-3 were seeded at a density of 3×10^3 cells per well in 96 well plate (Xinyou Biotechnology, 062096) in 95 μL of culture medium, overnight. Compounds dissolved in 10 mM stock solutions in DMSO were serially diluted 1:3 in DMSO to generate a 9-point dilution series and plated using an INTEGRA ASSIST Plus pipetting robot. A 20× intermediate compound dilution plate in RPMI1640 medium (200 M starting compound concentration in 2% DMSO) was then prepared. Five μL of intermediate serially diluted compounds were added to the cell plate to final concentrations ranging from […] to 1 nM in 0.1% DMSO. 0.1% DMSO alone was used to establish the maximum signal and medium without cells was for minimum signal. After 3 days treatment, equilibrated the plate and its contents at room temperature for approximately 30 minutes. Added 30 μL CellTiter-Glo® Reagent (Promega, REF #G7571) to each well. Then mixed contents for 5 min on plate shaker to induce cell lysis. Incubated at room temperature for 10 minutes to stabilize luminescent signal. The plates were read on PHERAstar FSX Microplate reader using standard luminescence settings.
Relative IC50 values were determined using luminescence units by calculating percent inhibition with respect to the in-plate “MIN” (medium only) and “MAX” (0.1% DMSO) controls. The data were analyzed using a 4-parameter nonlinear logistic equation (four-parameter logistic concentration-response curve): Y=bottom+[(top−bottom)/1+(X/IC50) slope] • where Y=% inhibition, X=concentration of inhibitor, bottom=minimum value of y attained by curve-fit, top=maximum value of y attained by curve-fit and slope=steepness of curve at the IC50.

IC50 (WT cell line SK-BR-3 [1]) | IC50 [2] | IC50 [3] | IC50 (WT cell line SK-BR-3 [4]) | SMILES | Selectivity: SK-BR-3/T-47D (cell proliferation) [2] | Selectivity: SK-BR-3/T-47D (p-AKT) [3]
> 10000 nM | > 10000 nM | > 10000 nM | > 10000 nM | Cc1cc([C@H](C)Nc2ccccc2C(=O)O)c2cc(-c3ccccc3)n(C)c(=O)c2c1 [Example 31, (S)-2-((1-(2,7-dimethyl-1-oxo-3-phenyl-1,2-dihydroisoquinolin-5-yl)ethyl)amino)benzoic acid] |  | 
> 10000 nM | > 10000 nM | 57.2 nM | > 10000 nM | Cc1cc(C(C)Nc2cc3ccsc3cc2C(=O)O)c2cc(-c3ccccc3)n(C)c(=O)c2c1 (stereo not drawn) [Example 47, 5-((1-(2,7-dimethyl-1-oxo-3-phenyl-1,2-dihydroisoquinolin-5-yl)ethyl)amino)benzo[b]thiophene-6-carboxylic acid] |  | >175
1360 nM | 284 nM | 25.6 nM | > 10000 nM | Cc1cc(C(C)Nc2ccccc2C(=O)O)c2cc(-c3ccc(F)cc3)n(C3COC3)c(=O)c2c1 (stereo not drawn) [Example 95, 2-((1-(3-(4-fluorophenyl)-7-methyl-2-(oxetan-3-yl)-1-oxo-1,2-dihydroisoquinolin-5-yl)ethyl)amino)benzoic acid] | >35 | 52.9
> 10000 nM | > 10000 nM | > 10000 nM | > 10000 nM | Cc1cc([C@H](C)Nc2ccccc2C(=O)O)c2cc(-c3ccc(C(C)(C)O)nc3)n(C)c(=O)c2c1 [Example 57, (S)-2-((1-(3-(6-(2-hydroxypropan-2-yl)pyridin-3-yl)-2,7-dimethyl-1-oxo-1,2-dihydroisoquinolin-5-yl)ethyl)amino)benzoic acid] |  | 
3590 nM | 233 nM | 64 nM | > 10000 nM | COc1cccc(-c2cc3c(C(C)Nc4ccccc4C(=O)O)cc(C)cc3c(=O)n2C)c1 (stereo not drawn) [Example 13, 2-((1-(3-(3-methoxyphenyl)-2,7-dimethyl-1-oxo-1,2-dihydroisoquinolin-5-yl)ethyl)amino)benzoic acid] | >43 | 56.1
5340 nM | 674 nM | 123 nM | > 10000 nM | Cc1cc(C(C)Nc2ccccc2C(=O)O)c2cc(C3=CCN(c4ccccc4)C3)n(C)c(=O)c2c1 (stereo not drawn) [Example 76, 2-((1-(2,7-dimethyl-1-oxo-3-(1-phenyl-2,5-dihydro-1H-pyrrol-3-yl)-1,2-dihydroisoquinolin-5-yl)ethyl)amino)benzoic acid] | >14.8 | 43.5
3790 nM | > 10000 nM | 632 nM | > 10000 nM | Cc1cc(C(C)Nc2c(C(=O)O)sc3ccccc23)c2cc(-c3ccccc3)n(C)c(=O)c2c1 (stereo not drawn) [Example 48, 3-((1-(2,7-dimethyl-1-oxo-3-phenyl-1,2-dihydroisoquinolin-5-yl)ethyl)amino)benzo[b]thiophene-2-carboxylic acid] |  | 6.0
> 10000 nM | > 10000 nM | 299 nM | > 10000 nM | CC(Nc1ccccc1C(=O)O)c1cccn2c(=O)cc(-c3ccccc3)cc12 (stereo not drawn) [Example 25, 2-((1-(4-oxo-2-phenyl-4H-quinolizin-9-yl)ethyl)amino)benzoic acid] |  | >33.4
3160 nM | 351 nM | 220 nM | > 10000 nM | COc1ncc(-c2cc3c(C(C)Nc4ccccc4C(=O)O)cc(C)cc3c(=O)n2C)cc1F (stereo not drawn) [Example 58, 2-((1-(3-(5-fluoro-6-methoxypyridin-3-yl)-2,7-dimethyl-1-oxo-1,2-dihydroisoquinolin-5-yl)ethyl)amino)benzoic acid] | >29 | 14.3

The remaining lines, values behind:

SMILES | IC50 (WT cell line SK-BR-3 [1]) | IC50 [2] | IC50 [3] | IC50 (WT cell line SK-BR-3 [4]) | Selectivity: SK-BR-3/T-47D (cell proliferation) [2] | Selectivity: SK-BR-3/T-47D (p-AKT) [3]
Cc1cc(C(C)Nc2ccccc2C(=O)O)c2cc(-c3cccc(F)c3)n(C)c(=O)c2c1 (stereo not drawn) [Example 7, 2-((1-(3-(3-fluorophenyl)-2,7-dimethyl-1-oxo-1,2-dihydroisoquinolin-5-yl)ethyl)amino)benzoic acid] | 1860 nM | 101 nM | 53.9 nM | > 10000 nM | >98.8 | 34.5
Cc1cc(C(C)Nc2ccccc2C(=O)O)c2cc(C#Cc3cnn(-c4ccccc4)c3)n(C)c(=O)c2c1 (stereo not drawn) [Example 94, 2-((1-(2,7-dimethyl-1-oxo-3-((1-phenyl-1H-pyrazol-4-yl)ethynyl)-1,2-dihydroisoquinolin-5-yl)ethyl)amino)benzoic acid] | > 10000 nM | > 10000 nM | 3280 nM | > 10000 nM |  | >3.05
Cc1cc(C(C)Nc2ccccc2C(=O)O)c2cc(-c3ccc(C(F)(F)F)cc3)n(C)c(=O)c2c1 (stereo not drawn) [Example 49, 2-((1-(2,7-dimethyl-1-oxo-3-(4-(trifluoromethyl)phenyl)-1,2-dihydroisoquinolin-5-yl)ethyl)amino)benzoic acid] | 4520 nM | 986 nM | 89.2 nM | > 10000 nM | >10 | 50.7
Cc1cc(C(C)Nc2ccccc2C(=O)O)c2cc(-c3ccc4c(c3)C(=O)N(C)C4)n(C)c(=O)c2c1 (stereo not drawn) [Example 75, 2-((1-(2,7-dimethyl-3-(2-methyl-3-oxoisoindolin-5-yl)-1-oxo-1,2-dihydroisoquinolin-5-yl)ethyl)amino)benzoic acid] | > 10000 nM | 270 nM | 547 nM | > 10000 nM | >37 | >18.29
COc1ncc(-c2cc3c([C@@H](C)Nc4ccccc4C(=O)O)cc(C)cc3c(=O)n2C)cc1F [Example 59, (R)-2-((1-(3-(5-fluoro-6-methoxypyridin-3-yl)-2,7-dimethyl-1-oxo-1,2-dihydroisoquinolin-5-yl)ethyl)amino)benzoic acid] | > 10000 nM | 93.1 nM | 81.5 nM | > 10000 nM | >107 | >123
Cc1cc(C(C)Nc2ccccc2C(=O)O)c2cc(C#Cc3ccn(C)n3)n(C)c(=O)c2c1 (stereo not drawn) [Example 88, 2-((1-(2,7-dimethyl-3-((1-methyl-1H-pyrazol-3-yl)ethynyl)-1-oxo-1,2-dihydroisoquinolin-5-yl)ethyl)amino)benzoic acid] | 1940 nM | 695 nM | 68.5 nM | > 10000 nM | >14 | 28.3
Cc1cc(C(C)Nc2ccccc2S(C)(=O)=O)c2cc(-c3ccccc3)n(C)c(=O)c2c1 (stereo not drawn) [Example 82, 2,7-dimethyl-5-(1-((2-(methylsulfonyl)phenyl)amino)ethyl)-3-phenylisoquinolin-1(2H)-one] | 2020 nM | > 10000 nM | 155 nM | > 10000 nM |  | 13.0
Cc1cc([C@@H](C)Nc2ccccc2C(=O)O)c2cc(-c3ccc(F)cc3)n(C)c(=O)c2c1 [Example 34, (R)-2-((1-(3-(4-fluorophenyl)-2,7-dimethyl-1-oxo-1,2-dihydroisoquinolin-5-yl)ethyl)amino)benzoic acid] | > 10000 nM | 175 nM | 20.2 nM | > 10000 nM | >57 | >494
